In the kinase profiling compilation of Christmann-Franck et al. (2016):

Legend:
Assay in all cases: radiometric filter-binding kinase assay, Kinase HotSpot
Details in all cases: compound 0.5 µM; ATP 10 µM
MAP3K8 (human) = MAP3K8 (human) (UniProt P41279)
[1] = tested on: PRKCQ (human), Q04759 [P330L]
ERBB2 (human) = ERBB2 (human) (UniProt P04626)
MET (human) = MET (human) (UniProt P08581)
MAPKAPK2 (human) = MAPKAPK2 (human) (UniProt P49137)
CLK1 (human) = CLK1 (human) (UniProt P49759)
RPS6KA6 KD1 KD2 (human) = RPS6KA6 KD1 KD2 (human) (UniProt Q9UK32)
YES1 (human) = YES1 (human) (UniProt P07947)
RPS6KA1 KD1 KD2 (human) = RPS6KA1 KD1 KD2 (human) (UniProt Q15418)
RET (human) = RET (human) (UniProt P07949)
MAP3K7 TAB1 (human) = MAP3K7 TAB1 (human) (UniProt O43318+Q15750)
PRKCE (human) = PRKCE (human) (UniProt Q02156)
PASK (human) = PASK (human) (UniProt Q96RG2)
MAPKAPK3 (human) = MAPKAPK3 (human) (UniProt Q16644)
ULK1 (human) = ULK1 (human) (UniProt O75385)
EPHA7 (human) = EPHA7 (human) (UniProt Q15375)
MAP4K5 (human) = MAP4K5 (human) (UniProt Q9Y4K4)
PTK2 (human) = PTK2 (human) (UniProt Q05397)
CLK4 (human) = CLK4 (human) (UniProt Q9HAZ1)
CAMK2A (human) = CAMK2A (human) (UniProt Q9UQM7)
EPHB4 (human) = EPHB4 (human) (UniProt P54760)
ADRBK1 (human) = ADRBK1 (human) (UniProt P25098)
MAP3K10 (human) = MAP3K10 (human) (UniProt Q02779)
IGF1R (human) = IGF1R (human) (UniProt P08069)
CHUK (human) = CHUK (human) (UniProt O15111)
PTK6 (human) = PTK6 (human) (UniProt Q13882)
EPHB3 (human) = EPHB3 (human) (UniProt P54753)
PRKD3 (human) = PRKD3 (human) (UniProt O94806)
KDR (human) = KDR (human) (UniProt P35968)
PIM1 (human) = PIM1 (human) (UniProt P11309)
NTRK1 (human) = NTRK1 (human) (UniProt P04629)
STK25 (human) = STK25 (human) (UniProt O00506)
PRKCB2 (human) = PRKCB2 (human) (UniProt P05771)
AURKB (human) = AURKB (human) (UniProt Q96GD4)
MAPK10 (human) = MAPK10 (human) (UniProt P53779)
IRAK4 (human) = IRAK4 (human) (UniProt Q9NWZ3)
TAOK1 (human) = TAOK1 (human) (UniProt Q7L7X3)
CDK2 CCNE1 (human) = CDK2 CCNE1 (human) (UniProt P24941+P24864)
RPS6KA4 KD2 (human) = RPS6KA4 KD2 (human) (UniProt O75676)
SRPK1 (human) = SRPK1 (human) (UniProt Q96SB4)
PRKCG (human) = PRKCG (human) (UniProt P05129)
RPS6KA5 KD2 (human) = RPS6KA5 KD2 (human) (UniProt O75582)

Sequence of ADRBK1 (human) (P25098 whole entry, looked up): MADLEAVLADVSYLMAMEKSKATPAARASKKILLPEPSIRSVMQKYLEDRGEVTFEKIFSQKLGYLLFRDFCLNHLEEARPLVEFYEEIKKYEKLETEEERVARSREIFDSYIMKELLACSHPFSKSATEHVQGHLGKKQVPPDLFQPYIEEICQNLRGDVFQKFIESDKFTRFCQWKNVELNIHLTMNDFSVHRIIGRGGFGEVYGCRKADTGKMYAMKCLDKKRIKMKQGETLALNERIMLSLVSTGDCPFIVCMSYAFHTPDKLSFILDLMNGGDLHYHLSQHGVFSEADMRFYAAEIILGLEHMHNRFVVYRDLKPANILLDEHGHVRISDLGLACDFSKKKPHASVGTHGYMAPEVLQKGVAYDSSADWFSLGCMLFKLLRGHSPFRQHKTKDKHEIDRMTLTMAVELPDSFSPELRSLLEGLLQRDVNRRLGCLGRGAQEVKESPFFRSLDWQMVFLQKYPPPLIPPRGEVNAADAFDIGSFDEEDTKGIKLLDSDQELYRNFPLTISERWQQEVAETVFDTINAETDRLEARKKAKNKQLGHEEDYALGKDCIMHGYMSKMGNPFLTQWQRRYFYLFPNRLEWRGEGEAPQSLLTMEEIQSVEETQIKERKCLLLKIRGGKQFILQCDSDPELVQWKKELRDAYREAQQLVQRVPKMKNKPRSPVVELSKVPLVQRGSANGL
Sequence of NTRK1 (human) (P04629 whole entry, looked up): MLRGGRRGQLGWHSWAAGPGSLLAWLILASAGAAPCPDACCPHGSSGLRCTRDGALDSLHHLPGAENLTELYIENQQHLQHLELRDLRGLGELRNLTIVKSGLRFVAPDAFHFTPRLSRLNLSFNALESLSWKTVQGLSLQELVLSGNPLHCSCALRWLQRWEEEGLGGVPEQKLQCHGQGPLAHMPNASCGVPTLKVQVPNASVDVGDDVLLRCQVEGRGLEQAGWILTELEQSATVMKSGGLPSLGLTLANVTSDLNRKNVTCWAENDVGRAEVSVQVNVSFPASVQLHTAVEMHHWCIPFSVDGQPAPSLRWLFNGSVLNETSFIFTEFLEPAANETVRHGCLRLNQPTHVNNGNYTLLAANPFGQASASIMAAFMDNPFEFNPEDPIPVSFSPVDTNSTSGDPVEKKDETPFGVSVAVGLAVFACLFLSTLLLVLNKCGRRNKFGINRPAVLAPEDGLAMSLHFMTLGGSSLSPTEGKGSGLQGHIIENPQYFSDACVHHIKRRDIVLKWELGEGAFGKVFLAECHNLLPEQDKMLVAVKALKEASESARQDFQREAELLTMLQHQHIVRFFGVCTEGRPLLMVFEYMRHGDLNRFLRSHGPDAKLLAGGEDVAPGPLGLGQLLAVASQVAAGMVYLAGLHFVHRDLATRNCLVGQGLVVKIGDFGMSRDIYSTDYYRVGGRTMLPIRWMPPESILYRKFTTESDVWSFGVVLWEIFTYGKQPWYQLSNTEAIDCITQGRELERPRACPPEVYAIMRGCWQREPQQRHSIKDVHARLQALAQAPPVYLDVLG
Sequence of PRKCE (human) (Q02156 whole entry, looked up): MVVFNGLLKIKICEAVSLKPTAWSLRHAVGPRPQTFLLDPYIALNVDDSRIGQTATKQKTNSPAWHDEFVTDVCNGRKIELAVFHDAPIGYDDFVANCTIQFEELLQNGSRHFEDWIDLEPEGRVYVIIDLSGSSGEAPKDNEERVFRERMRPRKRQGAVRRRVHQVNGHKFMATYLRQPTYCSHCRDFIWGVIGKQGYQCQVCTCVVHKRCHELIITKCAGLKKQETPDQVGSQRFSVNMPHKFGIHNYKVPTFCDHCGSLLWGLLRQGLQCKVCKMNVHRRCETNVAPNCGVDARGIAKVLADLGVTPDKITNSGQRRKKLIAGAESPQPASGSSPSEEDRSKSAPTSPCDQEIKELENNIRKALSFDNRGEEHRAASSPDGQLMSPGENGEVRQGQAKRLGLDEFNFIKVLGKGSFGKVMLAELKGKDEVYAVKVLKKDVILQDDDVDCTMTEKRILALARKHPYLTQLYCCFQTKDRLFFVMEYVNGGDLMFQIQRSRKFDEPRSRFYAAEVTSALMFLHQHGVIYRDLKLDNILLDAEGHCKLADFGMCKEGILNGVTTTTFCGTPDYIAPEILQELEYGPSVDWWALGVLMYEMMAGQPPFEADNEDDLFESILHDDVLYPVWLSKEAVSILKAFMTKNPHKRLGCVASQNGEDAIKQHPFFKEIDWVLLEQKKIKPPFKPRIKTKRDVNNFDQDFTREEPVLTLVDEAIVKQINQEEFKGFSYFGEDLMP
Sequence of CHUK (human) (O15111 whole entry, looked up): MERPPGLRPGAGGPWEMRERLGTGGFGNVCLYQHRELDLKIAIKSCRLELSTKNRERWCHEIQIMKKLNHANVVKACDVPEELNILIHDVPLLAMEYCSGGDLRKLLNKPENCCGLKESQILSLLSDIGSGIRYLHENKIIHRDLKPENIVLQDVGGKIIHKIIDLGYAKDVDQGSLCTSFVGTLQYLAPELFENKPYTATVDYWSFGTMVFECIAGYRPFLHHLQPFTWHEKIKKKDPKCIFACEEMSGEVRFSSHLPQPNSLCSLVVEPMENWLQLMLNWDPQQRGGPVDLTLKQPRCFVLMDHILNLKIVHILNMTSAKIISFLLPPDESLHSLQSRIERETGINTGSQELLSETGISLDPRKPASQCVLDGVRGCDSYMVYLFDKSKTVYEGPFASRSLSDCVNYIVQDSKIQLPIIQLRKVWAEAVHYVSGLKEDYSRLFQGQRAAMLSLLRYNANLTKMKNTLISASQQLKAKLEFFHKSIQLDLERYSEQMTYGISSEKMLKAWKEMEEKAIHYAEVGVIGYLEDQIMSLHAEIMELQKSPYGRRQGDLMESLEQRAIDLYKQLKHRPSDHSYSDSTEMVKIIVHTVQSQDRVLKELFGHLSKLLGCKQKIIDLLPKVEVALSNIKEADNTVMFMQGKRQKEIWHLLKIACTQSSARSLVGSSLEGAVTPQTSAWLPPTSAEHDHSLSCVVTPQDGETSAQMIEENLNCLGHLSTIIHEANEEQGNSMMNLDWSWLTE
Sequence of EPHA7 (human) (Q15375 whole entry, looked up): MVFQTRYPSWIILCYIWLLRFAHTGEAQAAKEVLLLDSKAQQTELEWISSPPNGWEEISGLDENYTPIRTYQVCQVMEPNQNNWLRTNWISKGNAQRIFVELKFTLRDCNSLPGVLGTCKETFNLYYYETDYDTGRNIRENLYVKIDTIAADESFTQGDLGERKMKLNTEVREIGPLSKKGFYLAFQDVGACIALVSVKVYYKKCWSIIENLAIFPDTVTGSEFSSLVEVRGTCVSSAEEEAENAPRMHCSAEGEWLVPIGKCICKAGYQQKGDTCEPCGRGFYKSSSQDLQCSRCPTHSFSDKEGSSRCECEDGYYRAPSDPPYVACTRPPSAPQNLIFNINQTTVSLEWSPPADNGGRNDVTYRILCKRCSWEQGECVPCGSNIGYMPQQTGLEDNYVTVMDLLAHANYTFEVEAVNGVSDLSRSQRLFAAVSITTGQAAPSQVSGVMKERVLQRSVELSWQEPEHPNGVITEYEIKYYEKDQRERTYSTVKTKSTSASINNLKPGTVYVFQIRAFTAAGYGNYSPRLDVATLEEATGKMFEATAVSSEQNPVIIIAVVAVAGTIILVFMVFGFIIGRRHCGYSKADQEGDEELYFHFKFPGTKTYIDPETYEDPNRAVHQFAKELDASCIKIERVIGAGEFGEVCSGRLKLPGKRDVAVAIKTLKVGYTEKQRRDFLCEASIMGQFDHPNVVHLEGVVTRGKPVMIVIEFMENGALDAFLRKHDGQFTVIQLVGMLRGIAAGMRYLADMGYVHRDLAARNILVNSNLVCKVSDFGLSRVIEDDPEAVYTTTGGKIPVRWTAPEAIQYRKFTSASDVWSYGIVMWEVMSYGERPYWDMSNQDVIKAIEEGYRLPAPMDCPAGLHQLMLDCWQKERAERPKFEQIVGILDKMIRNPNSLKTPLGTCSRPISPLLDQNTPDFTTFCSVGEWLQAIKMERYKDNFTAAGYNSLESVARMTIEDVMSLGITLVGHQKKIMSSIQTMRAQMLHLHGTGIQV
Sequence of MAPKAPK2 (human) (P49137 whole entry, looked up): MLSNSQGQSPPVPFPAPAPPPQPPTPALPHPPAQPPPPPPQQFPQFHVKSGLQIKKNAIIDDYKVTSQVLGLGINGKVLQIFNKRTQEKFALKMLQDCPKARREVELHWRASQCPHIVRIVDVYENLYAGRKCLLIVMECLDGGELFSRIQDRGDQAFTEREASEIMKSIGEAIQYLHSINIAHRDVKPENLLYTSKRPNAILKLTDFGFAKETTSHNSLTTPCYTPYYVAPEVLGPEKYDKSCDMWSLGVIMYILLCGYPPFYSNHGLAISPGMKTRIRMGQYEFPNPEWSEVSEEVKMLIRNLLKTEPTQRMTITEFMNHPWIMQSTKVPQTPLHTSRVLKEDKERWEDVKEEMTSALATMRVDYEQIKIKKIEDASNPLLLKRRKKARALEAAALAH
Sequence of MAPK10 (human) (P53779 whole entry, looked up): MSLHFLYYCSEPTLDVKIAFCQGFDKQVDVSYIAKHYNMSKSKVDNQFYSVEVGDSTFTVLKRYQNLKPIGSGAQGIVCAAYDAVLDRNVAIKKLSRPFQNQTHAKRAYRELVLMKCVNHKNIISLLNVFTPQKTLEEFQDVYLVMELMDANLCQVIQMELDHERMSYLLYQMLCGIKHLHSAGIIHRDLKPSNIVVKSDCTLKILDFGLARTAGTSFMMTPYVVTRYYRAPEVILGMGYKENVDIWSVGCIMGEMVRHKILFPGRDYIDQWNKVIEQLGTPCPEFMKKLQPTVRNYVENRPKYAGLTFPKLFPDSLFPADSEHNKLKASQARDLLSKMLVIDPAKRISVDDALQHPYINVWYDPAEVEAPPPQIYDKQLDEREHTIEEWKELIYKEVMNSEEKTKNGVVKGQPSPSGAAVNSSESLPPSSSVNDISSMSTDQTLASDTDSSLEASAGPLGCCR

Fc1ccc(-c2nc3n(c2-c2ccncc2)CCS3)cc1
residual activity (MAP3K8 (human)): 88.1% | residual activity [1]: 123% | residual activity (ERBB2 (human)): 105% | residual activity (MET (human)): 92.7% | residual activity (MAPKAPK2 (human)): 101% | residual activity (CLK1 (human)): 103% | residual activity (RPS6KA6 KD1 KD2 (human)): 115% | residual activity (YES1 (human)): 99.4% | residual activity (RPS6KA1 KD1 KD2 (human)): 100% | residual activity (RET (human)): 99.5% | residual activity (MAP3K7 TAB1 (human)): 92.2% | residual activity (PRKCE (human)): 97.7% | residual activity (PASK (human)): 109% | residual activity (MAPKAPK3 (human)): 95.5% | residual activity (ULK1 (human)): 82.6% | residual activity (EPHA7 (human)): 76.3% | residual activity (MAP4K5 (human)): 98.7% | residual activity (PTK2 (human)): 102% | residual activity (CLK4 (human)): 106% | residual activity (CAMK2A (human)): 106% | residual activity (EPHB4 (human)): 88% | residual activity (ADRBK1 (human)): 102% | residual activity (MAP3K10 (human)): 101% | residual activity (IGF1R (human)): 106% | residual activity (CHUK (human)): 104% | residual activity (PTK6 (human)): 84.8% | residual activity (EPHB3 (human)): 96.1% | residual activity (PRKD3 (human)): 88.2% | residual activity (KDR (human)): 95.7% | residual activity (PIM1 (human)): 104% | residual activity (NTRK1 (human)): 99.5% | residual activity (STK25 (human)): 104% | residual activity (PRKCB2 (human)): 87.2% | residual activity (AURKB (human)): 98.5% | residual activity (MAPK10 (human)): 116% | residual activity (IRAK4 (human)): 109% | residual activity (TAOK1 (human)): 97.7% | residual activity (CDK2 CCNE1 (human)): 87.9% | residual activity (RPS6KA4 KD2 (human)): 88.8% | residual activity (SRPK1 (human)): 100%

O=C1c2ccccc2-c2nc3nnnn3nc21
residual activity (MAP3K8 (human)): 75.9% | residual activity [1]: 83% | residual activity (ERBB2 (human)): 22.2% | residual activity (MET (human)): 83.3% | residual activity (MAPKAPK2 (human)): 104% | residual activity (CLK1 (human)): 79.4% | residual activity (RPS6KA6 KD1 KD2 (human)): 62.3% | residual activity (YES1 (human)): 89.1% | residual activity (RPS6KA1 KD1 KD2 (human)): 53.1% | residual activity (RET (human)): 101% | residual activity (PRKCG (human)): 59.3% | residual activity (MAP3K7 TAB1 (human)): 89.9% | residual activity (PRKCE (human)): 99% | residual activity (PASK (human)): 73.4% | residual activity (MAPKAPK3 (human)): 76% | residual activity (ULK1 (human)): 107% | residual activity (EPHA7 (human)): 81.9% | residual activity (MAP4K5 (human)): 78.7% | residual activity (RPS6KA5 KD2 (human)): 68.7% | residual activity (CLK4 (human)): 78.3% | residual activity (CAMK2A (human)): 84.7% | residual activity (EPHB4 (human)): 97.1% | residual activity (ADRBK1 (human)): 106% | residual activity (MAP3K10 (human)): 94.6% | residual activity (IGF1R (human)): 91.1% | residual activity (CHUK (human)): 72% | residual activity (PTK6 (human)): 111% | residual activity (EPHB3 (human)): 90.2% | residual activity (PRKD3 (human)): 83.4% | residual activity (KDR (human)): 1.95% | residual activity (PIM1 (human)): 94.1% | residual activity (NTRK1 (human)): 76.6% | residual activity (STK25 (human)): 101% | residual activity (PRKCB2 (human)): 29.3% | residual activity (AURKB (human)): 84.7% | residual activity (MAPK10 (human)): 55% | residual activity (IRAK4 (human)): 96.9% | residual activity (TAOK1 (human)): 90.2% | residual activity (CDK2 CCNE1 (human)): 80.6% | residual activity (RPS6KA4 KD2 (human)): 72.2% | residual activity (SRPK1 (human)): 109%

COc1ccc(Cl)cc1NC(=O)Nc1cc(C)nc2ccccc12
residual activity (MAP3K8 (human)): 99.5% | residual activity [1]: 96.7% | residual activity (ERBB2 (human)): 99.7% | residual activity (MET (human)): 96.6% | residual activity (MAPKAPK2 (human)): 109% | residual activity (CLK1 (human)): 97.6% | residual activity (YES1 (human)): 90.1% | residual activity (RPS6KA1 KD1 KD2 (human)): 77.8% | residual activity (RET (human)): 102% | residual activity (PRKCG (human)): 107% | residual activity (MAP3K7 TAB1 (human)): 101% | residual activity (PRKCE (human)): 99.7% | residual activity (PASK (human)): 97.6% | residual activity (MAPKAPK3 (human)): 101% | residual activity (ULK1 (human)): 91.2% | residual activity (EPHA7 (human)): 99.7% | residual activity (MAP4K5 (human)): 100% | residual activity (RPS6KA5 KD2 (human)): 88.4% | residual activity (PTK2 (human)): 97.3% | residual activity (CLK4 (human)): 108% | residual activity (CAMK2A (human)): 101% | residual activity (EPHB4 (human)): 93.7% | residual activity (ADRBK1 (human)): 100% | residual activity (MAP3K10 (human)): 94.9% | residual activity (IGF1R (human)): 94.9% | residual activity (CHUK (human)): 100% | residual activity (PTK6 (human)): 101% | residual activity (PRKD3 (human)): 97.1% | residual activity (KDR (human)): 92.8% | residual activity (PIM1 (human)): 98.1% | residual activity (NTRK1 (human)): 92.5% | residual activity (STK25 (human)): 101% | residual activity (PRKCB2 (human)): 109% | residual activity (AURKB (human)): 95.9% | residual activity (MAPK10 (human)): 86% | residual activity (IRAK4 (human)): 99.9% | residual activity (TAOK1 (human)): 103% | residual activity (CDK2 CCNE1 (human)): 94.6% | residual activity (RPS6KA4 KD2 (human)): 94% | residual activity (SRPK1 (human)): 82.5%
